pKi: −log10 of the molar value.
Tests used:
[1] = system: phenylephrine response on mean arterial pressure (MAP) and intraurethral pressure (IUP); experiment: In vivo uroselectivity study in conscious beagle dogs; conditions: for Area Under Curve IUP / Area Under Curve MAP: percent change of phenylephrine (16 μg/kg i.v.) response, 0.5-24 hours
Source text: In order to assess the uroselectivity in vivo, the effects of these compounds were studied on mean arterial pressure (MAP) and intraurethral pressure (IUP) in conscious beagle dogs as per the method of Brune et. al. (Pharmacol 1996, 53:356-368). Briefly, male dogs were instrumented for chronic continuous measurement of arterial blood pressure by implanting a telemetry transmitter (TL11M2-D70-PCT, Data Sci. International, St. Paul, Minn. USA) into the femoral artery, two weeks prior to the study. During the recovery period, the animal was acclimatized to stay in the sling restraint. On the day of testing, overnight fasted animal was placed in the sling restraint. A Swan-Ganz. Balloon tipped catheter was introduced into the urethra at the level of prostate and the balloon was inflated (Brune. et. al. 1996). After recording the base line readings, effect of 16 μg/kg, phenylephrine (i.v.) on MAP and IUP was recorded. The response of phenylephrine to MAP and IUP were recorded at 0.5, 1, 2, 3, 4, 6, 9 and 24 hours after the oral administration of vehicle or the test drug. The changes in MAP was recorded on line using Dataquest Software (Data Sci. International. St. Paul, Minn. USA) and IUP was recorded on a Grass Polygraph (Model 7, Grass Instruments, USA). The change in phenylephrine response on MAP and IUP administration after the test drug administration was calculated as percent change of that of control values. Area under curve was calculated and the ratio of the values for MAP and IUP was used for calculating the uroselectivity (Table III)

[2] = biological target: T1, α1B adrenoceptor (spleen) (Rattus norvegicus, UniProt P15823); experiment: In vitro functional study, antagonism of phenylepinephrine-induced contraction of spleen; type: biochemical; conditions: tested compound at 0.1, 1 and 10 mM, read-out: α Adrenoceptor Subtype (pKB) α1B (converted)
T1 construct: Isolated tissues were mounted in organ bath containing Krebs Henseleit buffer; from tissue; host or cells: isolated spleen of male wistar rats
T1 sequence (P15823 1-515): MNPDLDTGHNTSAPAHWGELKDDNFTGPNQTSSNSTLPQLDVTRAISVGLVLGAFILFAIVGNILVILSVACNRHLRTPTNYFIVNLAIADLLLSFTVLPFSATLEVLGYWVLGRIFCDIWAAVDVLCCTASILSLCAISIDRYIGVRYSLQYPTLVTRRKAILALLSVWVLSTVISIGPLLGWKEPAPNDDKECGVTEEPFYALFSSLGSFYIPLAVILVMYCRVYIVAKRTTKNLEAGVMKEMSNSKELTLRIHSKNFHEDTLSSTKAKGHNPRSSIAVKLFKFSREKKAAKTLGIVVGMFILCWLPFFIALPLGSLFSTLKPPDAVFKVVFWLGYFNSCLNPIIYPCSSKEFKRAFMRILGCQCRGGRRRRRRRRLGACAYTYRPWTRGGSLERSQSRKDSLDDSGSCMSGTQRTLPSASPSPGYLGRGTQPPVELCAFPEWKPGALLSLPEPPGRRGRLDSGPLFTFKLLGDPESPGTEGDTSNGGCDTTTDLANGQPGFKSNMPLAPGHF
Source text: In order to study selectivity of action of these compounds towards different α-adrenoceptor subtypes, the ability of these compounds to antagonise α1-adrenoceptor agonist induced contractile response on aorta (α1Dprostate (α1A and spleen (α1B was studied. Aorta and spleen tissues were isolated from urethane anaesthetised (1.5 gm/kg) male wistar rats. Isolated tissues were mounted in organ bath containing Krebs Henseleit buffer of following composition (mM): NaCl 118; KCl 4.7; CaCl2 2.5; MgSO4. 7H2O 1.2; NaHCO3 25; KH2PO41.2; glucose 11.5. Buffer was maintained at 37° C. and aereated with a mixture of 95% O2 and 5% CO2. A resting tension of 2 g (aorta) or 1 g (spleen and prostate)was applied to tissues. Contractile response was monitored using a force displacement transducer and recorded on chart recorders. Tissues were allowed to equilibrate for 2 hours. At the end of equilibration period, concentration response curves to norepinephrine (aorta) and phenylepinephrine (spleen and prostate) were obtained in absence and presence of tested compound (at concentration of 0.1,1 and 10 mM). Antagonist affinity was calculated and expressed as pKB vales in Table II.

α1B adrenoceptor = biological target: T2, α1B adrenoceptor (Rattus norvegicus, UniProt P15823); experiment: Receptor binding assay, displacement of [3H]prazosin, rat liver membranes; conditions: [3H]prazosin displacement, rat liver membranes; read-out: α1B (Rat liver) Ki
T2 construct: from tissue; host or cells: rat liver membranes
T2 sequence (P15823 1-515): T1 sequence (P15823 1-515)
Outline: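 Rat liver membranes (150-250 μg protein) incubated with [3H]prazosin in 50 mM Tris HCl, 5 mM EDTA, pH 7.4, 1 h at 24-25° C; nonspecific binding with 300 nM prazosin. Bound radioactivity counted after filtration; IC50 by nonlinear fit, Ki via Cheng-Prusoff.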

melting point [°C]	Kb [2] [nM]	pKi (α1B adrenoceptor)	SMILES	Uroselectivity Ratio IUP/MAP ([1]; 3 μg/kg p.o.)	Area Under Curve IUP ([1]; 3 μg/kg p.o.)	Area Under Curve MAP ([1]; 3 μg/kg p.o.)	Uroselectivity Ratio IUP/MAP ([1]; 10 μg/kg p.o.)	Area Under Curve IUP ([1]; 10 μg/kg p.o.)	Area Under Curve MAP ([1]; 10 μg/kg p.o.)	Uroselectivity Ratio IUP/MAP ([1]; 100 μg/kg p.o.)	Area Under Curve IUP ([1]; 100 μg/kg p.o.)	Area Under Curve MAP ([1]; 100 μg/kg p.o.)
193 to 194	14.1	7.55	CCCOc1ccccc1N1CCN(CCCN2C(=O)C3CC=CCC3C2=O)CC1.Cl (stereo not drawn) [Compound 24, 2-[3-{4-(2-Propoxyphenyl)piperazin-1-yl}propyl]-3a,4,7,7a-tetrahydro-1H-isoindole-1,3(2H)-dione hydrochloride]	7.6	522	68	–	–	–	–	–	–
221.9 to 222.7	5.25	7.72	CCOc1ccccc1N1CCN(CCCN2C(=O)C3CC=CCC3C2=O)CC1.Cl (stereo not drawn) [Compound 11, 2-[3-{4-(2-Ethoxyphenyl)piperazin-1-yl}propyl]-3a,4,7,7a-tetrahydro-1H-isoindole-1,3(2H)-dione hydrochloride]	–	–	–	66	661	10	–	–	–
223 to 224	19.5	7.55	CC(C)Oc1ccccc1N1CCN(CCCN2C(=O)C3CC=CCC3C2=O)CC1.Cl (stereo not drawn) [Compound 23, 2-[3-{4-(2-Isopropoxyphenyl)piperazin-1-yl}propyl]-3a,4,7,7a-tetrahydro-1H-isoindole-1,3(2H)-dione hydrochloride]	4	790	197	–	–	–	–	–	–
184 to 185	21.9	7.14	COc1ccccc1N1CCN(CCCN2C(=O)C3CC=CCC3C2=O)CC1.Cl (stereo not drawn) [Compound 01, 2-[3-{4-(2-Methoxyphenyl)piperazin-1-yl}propyl]-3a,4,7,7a-tetrahydro-1H-isoindole-1,3(2H)-dione hydrochloride]	–	–	–	–	–	–	5.54	514	93
